Reference: ChEMBL document CHEMBL4266018, “Discovery and Characterization of AZD6738, a Potent Inhibitor of Ataxia Telangiectasia Mutated and Rad3 Related (ATR) Kinase with Application as an Anticancer Agent” (J Med Chem, 2018)
Values belong to the compound of their own block, whether it stands above or below them.

Experiments:
Rattus norvegicus [1] = experiment: Dose normalized AUC in Han-Wistar rat at 4 umol/kg, po; assay type: ADME, organism-based; settings: in vivo
[2] = Plasma concentration in Swiss nu/nu mouse xenografted with human LoVo cells at 50 mg/kg, po qd after 8 hrs; assay type: ADME, organism-based
[3] = Apparent permeability across apical to basolateral side in human Caco2 cells at 10 uM at pH 7.4; assay type: ADME, cell-based; settings: Caco-2, pH 7.4
physchem = settings: octanol/phosphate buffer, pH 7.4
[4] = Plasma concentration in Swiss nu/nu mouse xenografted with human LoVo cells at 25 mg/kg, po bid after 8 hrs; assay type: ADME, organism-based
Rattus norvegicus [5] = experiment: Dose normalized AUC in Han-Wistar rat at 10 umol/kg, po; assay type: ADME, organism-based; settings: in vivo
in vitro [6] = settings: human, hepatocytes
in vitro [7] = settings: rat, hepatocytes
[8] = Plasma concentration in Swiss nu/nu mouse xenografted with human LoVo cells at 12.5 mg/kg, po bid after 8 hrs; assay type: ADME, organism-based
[9] = Apparent permeability across apical to basolateral side in human Caco2 cells at 10 uM at pH 6.5; assay type: ADME, cell-based; settings: Caco-2, pH 6.5
[10] = Plasma concentration in Swiss nu/nu mouse xenografted with human LoVo cells at 25 mg/kg, po qd after 8 hrs; assay type: ADME, organism-based
[11] = Intrinsic clearance in human hepatocytes assessed as per million cells at 1 uM; assay type: ADME, cell-based, Hepatocyte; settings: read-out: CLH
[12] = Volume of distribution at steady state in Han Wistar rat at 8.55 umol/kg, iv or 20.3 umol/kg, po; assay type: ADME, organism-based; settings: in vivo, read-out: Vdss
[13] = Oral bioavailability in Beagle dog at […]; assay type: ADME, organism-based, Canis lupus familiaris; settings: in vivo
[14] = Elimination half life in human; assay type: ADME, organism-based; settings: in vivo, read-out: beta t1/2 (converted)
Rattus norvegicus [15] = experiment: Clearance in Han Wistar rat at 8.55 umol/kg, iv or 20.3 umol/kg, po relative to liver blood flow; assay type: ADME, organism-based; settings: in vivo
[16] = Oral bioavailability in Han Wistar rat at 20.3 umol/kg; assay type: ADME, organism-based; settings: in vivo
[17] = Volume of distribution at steady state in Beagle dog at 10.5 umol/kg, iv or […], po; assay type: ADME, organism-based, Canis lupus familiaris; settings: in vivo, read-out: Vdss
[18] = Plasma concentration in Swiss nu/nu mouse xenografted with human LoVo cells at 75 mg/kg, po qd after 8 hrs; assay type: ADME, organism-based
Canis familiaris = experiment: Clearance in Beagle dog at 10.5 umol/kg, iv or […], po relative to liver blood flow; assay type: ADME, organism-based, Canis lupus familiaris; settings: in vivo

logD at 3 h, 10 µM (physchem): 1.8
Compound: C[C@@H]1COCCN1c1cc(C2([S@@](C)(=N)=O)CC2)nc(-c2ccnc3[nH]ccc23)n1

AUC/dose (Rattus norvegicus [5]): 0.35 µM·h
hepatocyte CLint at 1 µM (in vitro [6]): < 3 µL/min/1e6 cells
hepatocyte CLint at 1 µM (in vitro [7]): 11 µL/min/1e6 cells
concentration at 8 h [2]: 940 nM
Papp A→B at 10 µM [3]: 8 ×10⁻⁶ cm/s
logD at 3 h, 10 µM (physchem): 2.1
Compound: CNc1nc2ccccc2n1-c1nc(N2CCOC[C@H]2C)cc(C2([S@](C)(=N)=O)CC2)n1

logD at 3 h, 10 µM (physchem): 1.8
Compound: CC(=O)Nc1nc2ccccc2n1-c1nc(N2CCOC[C@H]2C)cc(C2(S(C)(=O)=O)CC2)n1

logD at 3 h, 10 µM (physchem): 2.1
Compound: CNc1nc2ccccc2n1-c1nc(N2CCOC[C@H]2C)cc(C2([S@@](C)(=N)=O)CC2)n1

logD at 3 h, 10 µM (physchem): 2.5
Compound: C[C@@H]1COCCN1c1cc(C2(S(C)(=O)=O)CC2)nc(-n2c(N)nc3ccccc32)n1

AUC/dose (Rattus norvegicus [5]): 0.4 µM·h
hepatocyte CLint at 1 µM (in vitro [6]): < 3 µL/min/1e6 cells
hepatocyte CLint at 1 µM (in vitro [7]): 25 µL/min/1e6 cells
Papp A→B at 10 µM [3]: 53 ×10⁻⁶ cm/s
logD at 3 h, 10 µM (physchem): 2.8
concentration at 8 h [4]: 8300 nM
Compound: CNc1nc2ccccc2n1-c1nc(N2CCOC[C@H]2C)cc(C2(S(C)(=O)=O)CC2)n1

logD at 3 h, 10 µM (physchem): 2.2
Compound: CS(=O)(=O)C1(c2cc(N3CCOCC3)nc(-n3c(N)nc4ccccc43)n2)CC1

The next lines start with the compound.

Compound: C[C@@H]1COCCN1c1cc(C2(S(C)(=O)=O)CC2)nc(-c2cccc3[nH]ccc23)n1
AUC/dose (Rattus norvegicus [1]): 1 µM·h
concentration at 8 h [2]: 3500 nM
Papp A→B at 10 µM [3]: 37 ×10⁻⁶ cm/s
logD at 3 h, 10 µM (physchem): 2.5
concentration at 8 h [4]: 1800 nM

Compound: CS(=O)(=O)C1(c2cc(N3CCOCC3)nc(-c3cccc4[nH]ccc34)n2)CC1
logD at 3 h, 10 µM (physchem): 2.3

Compound: CS(=O)(=O)C1(c2cc(N3CCOCC3)nc(-c3cccc4[nH]cnc34)n2)CC1
logD at 3 h, 10 µM (physchem): 2.2

Compound: CNC(=O)c1cc(-c2nc(N3CCOCC3)cc(C3(S(C)(=O)=O)CC3)n2)c2cc[nH]c2c1
logD at 3 h, 10 µM (physchem): 1.6

Compound: C[C@@H]1COCCN1c1cc(C2(S(C)(=N)=O)CC2)nc(-c2cncc3[nH]ccc23)n1 (some centres undefined)
logD at 3 h, 10 µM (physchem): 1.4

Compound: CS(=O)(=O)C1(c2cc(N3CCOCC3)nc(-c3cncc4[nH]ccc34)n2)CC1
logD at 3 h, 10 µM (physchem): 1.8

Compound: CS(=O)(=O)C1(c2cc(N3CCOCC3)nc(-c3ccnc4[nH]ccc34)n2)CC1
logD at 3 h, 10 µM (physchem): 2.2

Compound: C[C@@H]1COCCN1c1cc(C2(S(C)(=O)=O)CC2)nc(-c2cncc3[nH]ccc23)n1
AUC/dose (Rattus norvegicus [1]): 0.08 µM·h
concentration at 8 h [8]: 220 nM
Papp A→B at 10 µM [9]: 8 ×10⁻⁶ cm/s
hepatocyte CLint at 1 µM (in vitro [6]): < 3 µL/min/1e6 cells
hepatocyte CLint at 1 µM (in vitro [7]): 10 µL/min/1e6 cells
logD at 3 h, 10 µM (physchem): 2.1
concentration at 8 h [10]: 780 nM

Compound: C[C@@H]1COCCN1c1cc(C2([S@+](C)[O-])CC2)nc(-c2ccnc3[nH]ccc23)n1
logD at 3 h, 10 µM (physchem): 2.5

Compound: CS(=O)(=O)C1(c2cc(N3CC4CCC(C3)O4)nc(-c3cncc4[nH]ccc34)n2)CC1
logD at 3 h, 10 µM (physchem): 2.2

Compound: C[C@@H]1COCCN1c1cc(C2(S(C)(=O)=O)CC2)nc(-c2ccnc3[nH]ccc23)n1
logD at 3 h, 10 µM (physchem): 2.6

Compound: CS(=O)(=O)C1(c2cc(C3=CCOCC3)nc(-c3cccc4[nH]ccc34)n2)CC1
logD at 3 h, 10 µM (physchem): 2.9

Compound: C[C@H]1COCCN1c1cc(C2(S(C)(=O)=O)CC2)nc(-c2cncc3[nH]ccc23)n1
logD at 3 h, 10 µM (physchem): 2.2

Compound: CS(=O)(=O)C1(c2cc(N3C4CCC3COC4)nc(-c3cncc4[nH]ccc34)n2)CC1
logD at 3 h, 10 µM (physchem): 2.1

Compound: C[C@@H]1COCCN1c1cc(C2([S@@+](C)[O-])CC2)nc(-c2ccnc3[nH]ccc23)n1
logD at 3 h, 10 µM (physchem): 2.5

Compound: C[C@@H]1COCCN1c1cc(C2([S@](C)(=N)=O)CC2)nc(-c2cc[nH]c3nccc2-3)n1 [CERALASERTIB]
hepatocyte CLint at 1 µM [11]: 2 µL/min/1e6 cells
Vd [12]: 3.1 L/kg
Papp A→B at 10 µM [9]: 6.8 ×10⁻⁶ cm/s
bioavailability [13]: 100%
AUC/dose (Rattus norvegicus [5]): 0.8 µM·h
half-life [14]: 11 h
CL (Rattus norvegicus [15]): 22%
hepatocyte CLint at 1 µM (in vitro [6]): < 3 µL/min/1e6 cells
hepatocyte CLint at 1 µM (in vitro [7]): < 3.5 µL/min/1e6 cells
concentration at 8 h [2]: 2200 nM
bioavailability [16]: 67%
Papp A→B at 10 µM [3]: 12 ×10⁻⁶ cm/s
logD at 3 h, 10 µM (physchem): 1.9
Vd [17]: 1 L/kg
concentration at 8 h [18]: 2600 nM
CL (Canis familiaris): 10%
concentration at 8 h [4]: 740 nM
